System: UGT1A1
Experiment: RNA-seq of UGT1A1 expression in compound-treated primary human hepatocytes
Assay type: cell-based
Procedure: Human hepatocytes were obtained from two donors from Massachusetts General Hospital, namely MGH54 and MGH63, and one donor from Lonza, namely HUM4111B. Cryopreserved hepatocytes were cultured in plating media for 16 hours, transferred to maintenance media for 4 hours. Cultured on serum-free media for 2 hours, then a compound was added. The hepatocytes were maintained on the serum-free media for 16 hours prior to gene expression analysis. Primary human hepatocytes were stored in the vapor phase of a liquid nitrogen freezer (about −130° C.).
Human hepatocytes cultured as described above were plated in 24-well format, adding 375,000 cells per well in a volume of 500 ul plating medium. Four hours before treatment, cells were washed with PBS and the medium was changed to either: fresh maintenance medium (complete) or modified maintenance medium.
Compound stocks were prepared at 1000× final concentration and added in a 2-step dilution to the medium to reduce risk of a compound precipitating out of solution when added to the cells, and to ensure reasonable pipetting volumes. One at a time, each compound was first diluted 10-fold in warm (about 37° C.) modified maintenance medium (initial dilution=ID), mixed by vortexing, and the ID was diluted 100-fold into the cell culture (e.g. 5.1 ul into 1 well of a 24-well plate containing 0.5 mL medium). The plate was mixed by carefully swirling and after all wells were treated and returned to the incubator overnight. If desired, separate plates/wells were treated with vehicle-only controls and/or positive controls. If using multi-well plates, controls were included on each plate. After about 18 hours, cells were harvested for further analysis, e.g., ChIP-seq, RNA-seq, ATAC-seq, etc.
This protocol is a modified version of the following protocols: MagMAX mirVana Total RNA Isolation Kit User Guide (Applied Biosystems #MAN0011131 Rev B.0), NEBNext Poly(A) mRNA Magnetic Isolation Module (E7490), and NEBNext Ultra Directional RNA Library Prep Kit for Illumina (E7420) (New England Biosystems #E74901).
The MagMAX mirVana kit instructions (the section titled “Isolate RNA from cells” on pages 14-17) were used for isolation of total RNA from cells in culture. Two hundred μl of Lysis Binding Mix was used per well of the multiwell plate containing adherent cells (usually a 24-well plate).
For mRNA isolation and library prep, the NEBNext Poly(A) mRNA Magnetic Isolation Module and Directional Prep kit was used. RNA isolated from cells above was quantified, and prepared in […] of each sample in 50 μl of nuclease-free water. This protocol may be run in microfuge tubes or in a 96-well plate.
Standard QC were applied (read integrity, mapping statistics, library complexity, fragment bias) to remove unsatisfactory samples. […] Log 2 fold change and significance values were computed using PME count data (with replicates explicitly modeled versus pan-experiment controls), median ratio normalized, using maximum likelihood estimation rather than maximum a posteriori, and disabling the use of Cook's distance cutoff when determining acceptable adjusted p-values. […] RNA-seq signals were also normalized by read depth and visualized using the UCSC browser.
To identify small molecules that modulate target gene expression, primary human hepatocytes were prepared as a monoculture, and at least one small molecule compound was applied to the cells.
RNA-seq was performed to determine the effects of the compounds on the expression of the target genes in hepatocytes. Fold change was calculated by dividing the level of expression in the cell system that had been perturbed by the level of expression in an unperturbed system. Changes in expression having a p-value ≤0.05 were considered significant.
Significance was defined as an FPKM ≥1, a log 2(fold change) ≥0.5, and a q-value of ≤0.05 for all targets except for CPOX.

| Molecule | UGT1A1 Fold Change (Log2) |
| --- | --- |
| c1cc(-c2cnn3cc(-c4ccc(OCCN5CCCCC5)cc4)cnc23)ccn1 [Dorsomorphin] | 0.57 Log2 |
| Cc1cc(C)c2c(c1)[C@@H](N(Cc1cc(C(F)(F)F)cc(C(F)(F)F)c1)c1nnn(C)n1)CCCN2C[C@H]1CC[C@H](C(=O)O)CC1 [Evacetrapib] | 0.78 Log2 |
| C=C(c1ccc(C(=O)O)cc1)c1cc2c(cc1C)C(C)(C)CCC2(C)C [Bexarotene] | 1.29 Log2 |
| meBIO | 1.98 Log2 |
| Cc1ccc(-n2nc(C(C)(C)C)cc2NC(=O)Nc2ccc(OCCN3CCOCC3)c3ccccc23)cc1 [BIRB 796] | 1.04 Log2 |
| CCC1=C(C)CN(C(=O)NCCc2ccc(S(=O)(=O)NC(=O)N[C@H]3CC[C@H](C)CC3)cc2)C1=O [Glimepiride] | 0.96 Log2 |
| CC[C@@](C)(Nc1ccnc(-c2c[nH]c3ncccc23)n1)C(=O)NCC(F)(F)F [Decernotinib] | 0.58 Log2 |
| CC(C)c1onc(-c2c(Cl)cccc2Cl)c1COc1ccc(/C=C/c2cccc(C(=O)O)c2)c(Cl)c1 [GW4064] | 0.92 Log2 |
| C[C@H]1COC2=C1C(=O)C(=O)c1c2ccc2c1CCCC2(C)C [Cryptotanshinone] | 0.93 Log2 |
| Cn1cc(-c2ccc3nnc(C(F)(F)c4ccc5ncccc5c4)n3n2)cn1 [JNJ-38877605] | 1.09 Log2 |
| CNC(=O)c1ccc(N2C(=S)N(c3cnc(C#N)c(C(F)(F)F)c3)C(=O)C23CCC3)cc1F [ARN-509] | 1.16 Log2 |
| O=C(O)c1ccccc1C(=O)Nc1ccc(-c2ccccc2)cc1 [Kartogenin] | 2.24 Log2 |
| Cc1nc(Nc2ncc(C(=O)Nc3c(C)cccc3Cl)s2)cc(N2CCN(CCO)CC2)n1 [Dasatinib] | 0.67 Log2 |
| Cn1cc(-c2ccc(F)c(C(F)(F)F)c2)nc1C1CCN(c2ncnc3[nH]ncc23)CC1 [LY2584702] | 0.76 Log2 |
| C=C1/C(=C\C=C2/CCC[C@]3(C)[C@@H]([C@H](C)/C=C/C=C/C(O)(CC)CC)CC[C@@H]23)C[C@@H](O)C[C@@H]1O [EB1089] | 0.88 Log2 |
| Pifithrin-a | 1.44 Log2 |
| OCCn1cc(-c2ccc3c(c2)CC/C3=N\O)c(-c2ccncc2)n1 [GDC-0879] | 0.55 Log2 |
| CC(C)(C(=O)NCC(F)(F)C(F)(F)F)C(=O)N[C@@H]1C(=O)Nc2ccccc2-c2ccccc21 [RO4929097] | 1.06 Log2 |
| C[C@@]1(C(=O)Nc2ccc(F)nc2)CCCN1c1nc(Nc2cc(C3CC3)n[nH]2)c2cccn2n1 [BMS-754807] | 1.33 Log2 |
| COc1cc2c(cc1OC)-c1c(OC)c(OC)cc3ccnc(c13)C2=O [Oxoglaucine] | 0.83 Log2 |
| CC(C)[C@H](O)C(=O)N[C@@H](C)C(=O)N[C@@H]1C(=O)N(C)CCc2ccccc21 [Semagacestat] | 1.01 Log2 |
| Cc1ccc(C(=O)OCc2ccc([C@@H](CN)C(=O)Nc3ccc4cnccc4c3)cc2)c(C)c1 [Netarsudil] | 0.85 Log2 |
| BAM7 | 1.66 Log2 |
| Cc1ccc2nc(NC(=O)CSc3nc4c(c(=O)n3-c3ccccc3)SCC4)sc2c1 [IWP-2] | 0.64 Log2 |
| C[C@@H]1COCCN1c1cc(C2([S@](C)(=N)=O)CC2)nc(-c2cc[nH]c3nccc2-3)n1 [AZD6738] | 1.03 Log2 |
| O=C1Nc2cc(Br)ccc2/C1=C1/Nc2ccccc2/C1=N\O [BIO] | 0.62 Log2 |
| Cc1cc(Nc2nc(N[C@@H](C)c3ncc(F)cn3)ncc2Cl)[nH]n1 [AZD1480] | 0.93 Log2 |
| COc1ccc2[nH]c([S+]([O-])Cc3ncc(C)c(OC)c3C)nc2c1 (stereo not drawn) [Omeprazole] | 1.09 Log2 |
| CNC(=O)c1ccccc1Nc1cc(Nc2ccc(N3CCOCC3)cc2OC)ncc1C(F)(F)F [PND-1186] | 0.90 Log2 |
| CCn1c(=O)c(-c2ccc(-c3cncs3)cc2Cl)cc2cnc(Nc3ccc(N4CCN(C)CC4)cc3)nc21 [FRAX597] | 0.61 Log2 |
